Measured values from patent US12077555B2, “STAT degraders and uses thereof” (Kymera Therapeutics, Inc., priority 2019, dated 2024).

Tests used:
Format in all cases: cell-based
[1] = biological target: STAT3 (Homo sapiens, UniProt P40763); experiment: Deep tandem mass tag proteomics; settings: Molm-16 and SU-DHL-1 cells, 8 hours, FIGS. 4 and 13
Protocol: Total protein was isolated from cells (e.g., Molm-16 and SU-DHL-1) and treated with degrader for 8 hours. Vehicle (DMSO)-treated cells were used as controls. Protein lysates, 2 biological replicates per condition, were prepared at 4 C in 8M urea, 75 mM NaCl, 1 mM EDTA in 50 mM Tris HCl (pH 8), 10 mM NaF, phosphatase inhibitor cocktail 2 (1:100; Sigma, P5726) and cocktail 3 (1:100; Sigma, P0044), 2 μg/mL aprotinin (Sigma, A6103), 10 μg/mL Leupeptin (Roche, 11017101001), and 1 mM PMSF (Sigma, 78830). Lysates were spun at 20,000 rcf for 10 min and supernatant (containing extracted proteins) was transferred to a clean microcentrifuge tube. Protein concentrations were determined using the Pierce BCA assay. Protein lysates were reduced with 5 mM dithiothreitol (Thermo Scientific, 20291) for 45 min at room temperature and alkylated with 10 mM iodoacetamide (Sigma, A3221) for an additional 45 min. […] Online fractionation was performed using a nanoflow Proxeon EASY-nLC 1200 UHPLC system (Thermo Fisher Scientific) and separated peptides were analyzed on a benchtop Orbitrap Q Exactive plus mass spectrometer (Thermo Fisher Scientific). All data were analyzed using Spectrum Mill software package (Agilent Technologies). […] In total, 10,992 proteins were quantified. […]

[2] = tested on: SU-DHL-1 cells; experiment: Caspase 3/7-Glo activity assay; settings: SU-DHL-1, FIG. 17
Protocol: Determination of apoptosis was determined using a Caspase 3/7-Glo assay.
• 1—Prepare the Caspase-Glo® 3/7 Reagent (Promega cat #G8090) • Equilibrate the Caspase-Glo® 3/7 Buffer and lyophilized Caspase-Glo® 3/7 Substrate to room temperature before use. • Transfer the contents of the Caspase-Glo® 3/7 Buffer bottle into the amber bottle containing Caspase-Glo® 3/7 Substrate. • Mix by swirling or inverting the contents until the substrate is thoroughly dissolved to form the Caspase-Glo® 3/7 Reagent • Aliquot and store at −20 • 2—If thawing the reagent, allow it to equilibrate to room temperature. Mix well. • 3—Remove white-walled 384-well plate containing treated cells from the incubator and allow plates to equilibrate to room temperature. • 4—Add Caspase-Glo® 3/7 Reagent to each well of the plate at 1:1 ratio with media. Because of the sensitivity of this assay, be careful not to touch pipet tips to the wells containing samples to avoid cross-contamination. Cover the plate with a plate sealer or lid. • 5—Gently mix contents of wells using a plate shaker at 300-500 rpm for 30 seconds. Incubate at room temperature for 30-60 minutes. Note: Temperature fluctuations will affect the luminescence reading. • 6—Measure the luminescence of each sample in a plate-reading luminometer as directed by the luminometer manufacturer.

[3] = tested on: STAT3-mediated gene expression (SOCS3, PD-L1); experiment: RT-qPCR of STAT3, SOCS3 and PDL-1 mRNA levels in SU-DHL-1 cells; settings: FIG. 15
Protocol: FIG. 5. Includes graphical images and tables showing the results of RT-qPCR in SU-DHL-1 cells at 24 hours (A) with mRNA levels (% control) over I-103 concentration (nM)(x-axis) for STAT3, SOCS3, and PDL-1 genes and CellTiterGlo (CTG) cell viability at 4 days (B) with growth inhibition (% control) over I-103 concentration (nM)(x-axis) for MOLM-16 and SU-DHL-1 cell lines. Also shown are the results of MSD degradation DC50 (nM) in MOLM-16 and SU-DHL-1 cell lines at 24 hours.

Chain of STAT3 (P40763 whole entry): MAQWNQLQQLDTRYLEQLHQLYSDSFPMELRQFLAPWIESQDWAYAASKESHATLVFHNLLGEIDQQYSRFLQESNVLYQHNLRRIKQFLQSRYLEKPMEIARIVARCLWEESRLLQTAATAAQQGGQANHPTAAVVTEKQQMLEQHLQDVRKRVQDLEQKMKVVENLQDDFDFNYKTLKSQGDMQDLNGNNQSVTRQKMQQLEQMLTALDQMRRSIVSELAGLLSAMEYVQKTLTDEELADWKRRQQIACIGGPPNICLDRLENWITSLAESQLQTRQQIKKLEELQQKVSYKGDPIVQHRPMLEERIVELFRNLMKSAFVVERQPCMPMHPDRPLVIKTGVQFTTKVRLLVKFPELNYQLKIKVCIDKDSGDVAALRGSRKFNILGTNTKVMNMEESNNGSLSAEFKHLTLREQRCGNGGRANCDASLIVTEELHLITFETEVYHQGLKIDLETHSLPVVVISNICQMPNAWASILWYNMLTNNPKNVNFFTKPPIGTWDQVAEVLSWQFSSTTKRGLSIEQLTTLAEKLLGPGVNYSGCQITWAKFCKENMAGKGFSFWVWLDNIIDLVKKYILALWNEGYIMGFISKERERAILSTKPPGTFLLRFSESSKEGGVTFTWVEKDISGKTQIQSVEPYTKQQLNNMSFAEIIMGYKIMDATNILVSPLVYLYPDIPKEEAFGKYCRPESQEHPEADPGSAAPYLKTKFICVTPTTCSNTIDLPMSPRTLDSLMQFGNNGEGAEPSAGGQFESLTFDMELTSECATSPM

Cn1c(=O)n(C2CCC(=O)NC2=O)c2ccc(C[C@H]3CC[C@@H](CC(=O)N4CC[C@H]5CC[C@@H](C(=O)N[C@@H](CCC(N)=O)C(=O)NC(c6ccccc6)c6ccccc6)N5C(=O)[C@@H](NC(=O)c5cc6cc(C(=O)P(=O)(O)O)ccc6[nH]5)C4)CC3)cc21 (stereo partly drawn) [Compound I-174, 2-[[(5S,8S,10aR)-8-[[(1S)-3-carbamoyl-1-(diphenylmethylcarbamoyl)propyl]carbamoyl]-6-oxo-3-[2-[(1s,4s)-4-[[1-(2,6-dioxopiperidin-3-yl)-3-methyl-2-oxo-1,3-benzodiazol-5-yl]methyl]cyclohexyl]acetyl]-octahydropyrrolo[1,2-a][1,5]diazocin-5-yl]carbamoyl]-1H-indole-5-carbonylphosphonic acid]
selectivity of degradation for STAT3 vs >10,000 other detected proteins [1]: highly selective for STAT3 | decrease of STAT3 necessary to induce SU-DHL-1 apoptosis and inhibit cell growth [2]: 90% | STAT3-mediated gene expression of SOCS3 and PD-L1 [3]: repression of STAT3-mediated gene expression
